Test results taken from patent US20260274887A1, “SALT FORM AND POLYCRYSTALLINE FORM OF ALLOPREGNANOLONE DERIVATIVE, PREPARATION METHOD THEREFOR, AND USE THEREOF” (priority 2023, published 2026).
Read-outs that look alike come from different tables or passages of the source.

What was measured:
[1] = Solubility of different salt forms in water (HPLC of supernatant); conditions: for Solubility at 25° C. / Solubility at 37° C.: purified water, 24 h; for solubility at 24 h: water, thermodynamic from solid
Description: The system was stirred in a water bath at 25° C. In addition, the same system was prepared by the same method and stirred at 37° C. After 24 h, the supernatant was taken for HPLC analysis.

[2] = Hygroscopic weight gain experiment (Chinese Pharmacopoeia 2020 hygroscopicity guideline); assay type: physicochemical; conditions: for Hygroscopic weight gain: 25° C.±1° C. and 80%±2% RH
Description: Table 1 below is the definition and range of hygroscopicity for a drug after equilibration at 25° C.±1° C. and 80%±2% RH in Guidelines for Hygroscopicity Trials for Pharmaceuticals (Chinese Pharmacopoeia, 2020 Edition, Volume IV, page 485).
The strong hygroscopicity of a drug will seriously affect the flowability of the drug and even affect the stability of the drug. Therefore, according to the present application, a hygroscopic weight gain experiment was conducted on different salt forms of compound 1 as per the method described in Guidelines for Hygroscopicity Trials for Pharmaceuticals (Chinese Pharmacopoeia, 2020 Edition, Volume IV).

[3] = Interconversion between crystalline forms (slurry of two forms, DSC); assay type: physicochemical; conditions: room temperature, 3 days
Description: Samples of two different crystalline forms were mixed and dissolved in a corresponding solvent of 5 mL, and the mixture was stirred at room temperature for 3 days and separated by centrifugation. The resulting solid was dried in vacuum at 40 ° C. The dried product was subjected to a DSC test to determine the composition of the crystalline form.

[4] = Stability of crystalline form I and II (HPLC purity; XRPD and DSC crystalline form); assay type: physicochemical
[5] = as above; assay type: physicochemical; remark: listed apart in the source
Text: Samples were taken on day 0, day 10, and day 30 for XRPD and DSC detections to evaluate the physical stability and for HPLC purity detection to evaluate the chemical stability.

[6] = DVS profile (moisture sorption) of crystalline forms; assay type: physicochemical
[7] = assay type: physicochemical
[8] = in the human body; cited from earlier work

## Cc1ccc(S(=O)(=O)O)cc1.[2H]C(C)(C)C(N)C(=O)OC1CCC2(C)C(CCC3C2CCC2(C)C(C(C)=O)CCC32)C1 (stereo not drawn)
[1]
  Solubility at 25° C.: 810 µg/mL
  Solubility at 37° C.: 890 µg/mL
[2]
  Hygroscopic weight gain: 0%

## CC(=O)O [Acetate]
[2]
  Hygroscopic weight gain: 0.4%

## C1=Cc2cccc(OC[C@H]3CNCCO3)c2C1.O=S(=O)(O)c1ccccc1 [Benzenesulfonate]
[2]
  Hygroscopic weight gain: 0.2%

## [2H]C(C)(C)[C@H](N)C(=O)O[C@@H]1CC[C@@]2(C)[C@@H](CC[C@@H]3[C@@H]2CC[C@]2(C)[C@@H](C(C)=O)CC[C@@H]32)C1 [Compound 1, L-valine-3-d, (3α,5α)-3-hydroxy-pregnan-20-one-3-yl ester]
[1]; 25 °C
  solubility at 24 h: 10 µg/mL
[1]
  Solubility at 37° C.: Not detected

## Cl.[2H]C(C)(C)[C@H](N)C(=O)O[C@@H]1CC[C@@]2(C)[C@@H](CC[C@@H]3[C@@H]2CC[C@]2(C)[C@@H](C(C)=O)CC[C@@H]32)C1 [Crystalline form III]
[3]; isopropyl acetate 5 ml
  Final crystalline form: crystalline form I

## Cl.[2H]C(C)(C)[C@H](N)C(=O)O[C@@H]1CC[C@@]2(C)[C@@H](CC[C@@H]3[C@@H]2CC[C@]2(C)[C@@H](C(C)=O)CC[C@@H]32)C1 [Crystalline form II]
[4]; day 5
  Purity, High humidity (RH 92.5%): 99.39%
  Purity, High temperature (60° C.): 99.28%
  Purity, Illumination (4500 ± 500 Lux): 99.57%
[4]; day 10
  Purity, Illumination (4500 ± 500 Lux): 99.68%
[4]; day 30
  Purity, High humidity (RH 92.5%): 99.37%
  Purity, High temperature (60° C.): 97.03%
[5]; day 0
  Purity, High humidity (RH 92.5%): 99.59%
  Purity, High temperature (60° C.): 99.59%
  Purity, Illumination (4500 ± 500 Lux): 99.59%
[5]; day 10
  Purity, High humidity (RH 92.5%): 99.65%
  Purity, High temperature (60° C.): 98.93%
[5]; day 30
  Purity, Illumination (4500 ± 500 Lux): 99.20%
[6]; relative humidity 50%
  DVS weight gain: about 4%
[3]; isopropyl acetate 5 ml
  Final crystalline form: crystalline form I

## Cl.[2H]C(C)(C)[C@H](N)C(=O)O[C@@H]1CC[C@@]2(C)[C@@H](CC[C@@H]3[C@@H]2CC[C@]2(C)[C@@H](C(C)=O)CC[C@@H]32)C1 [Crystalline form IV]
[3]; n-heptane 5 ml
  Final crystalline form: crystalline form IIL

## Cl.[2H]C(C)(C)[C@H](N)C(=O)O[C@@H]1CC[C@@]2(C)[C@@H](CC[C@@H]3[C@@H]2CC[C@]2(C)[C@@H](C(C)=O)CC[C@@H]32)C1 [Crystalline form I]
[4]; day 5
  Purity, High humidity (RH 92.5%): 99.72%
  Purity, High temperature (60° C.): 99.78%
  Purity, Illumination (4500 ± 500 Lux): 99.78%
[4]; day 10
  Purity, Illumination (4500 ± 500 Lux): 99.82%
[4]; day 30
  Purity, High humidity (RH 92.5%): 99.78%
  Purity, High temperature (60° C.): 99.64%
[5]; day 0
  Purity, High humidity (RH 92.5%): 99.77%
  Purity, High temperature (60° C.): 99.77%
  Purity, Illumination (4500 ± 500 Lux): 99.77%
[5]; day 10
  Purity, High humidity (RH 92.5%): 99.82%
  Purity, High temperature (60° C.): 99.77%
[5]; day 30
  Purity, Illumination (4500 ± 500 Lux): 99.65%
[6]; relative humidity 90%
  DVS weight gain: 1.2%
[2]; summary of the polymorph comparison
  Hygroscopicity (summary statement): non-hygroscopic

## Cl.[2H]C(C)(C)[C@H](N)C(=O)O[C@@H]1CC[C@@]2(C)[C@@H](CC[C@@H]3[C@@H]2CC[C@]2(C)[C@@H](C(C)=O)CC[C@@H]32)C1 [Hydrochloride]
[1]; 25 °C
  solubility at 24 h: 22700 µg/mL
[1]; 37 °C
  solubility at 24 h: 46400 µg/mL
[7]; day 0
  HPLC purity, High humidity/RH 92.5%: 100%
  HPLC purity, High temperature/60° C.: 100%
  HPLC purity, Illumination/4500 ± 500 Lux: 100%
[7]; day 7
  HPLC purity, High humidity/RH 92.5%: 99.89%
  HPLC purity, High temperature/60° C.: 99.89%
  HPLC purity, Illumination/4500 ± 500 Lux: 99.89%
[7]; day 14
  HPLC purity, High humidity/RH 92.5%: 99.89%
  HPLC purity, High temperature/60° C.: 99.88%
  HPLC purity, Illumination/4500 ± 500 Lux: 99.89%
[2]
  Hygroscopic weight gain: 0.2%

## O=C(O)CC(O)C(=O)O.[2H]C(C)(C)C(N)C(=O)OC1CCC2(C)C(CCC3C2CCC2(C)C(C(C)=O)CCC32)C1.[2H]C(C)(C)C(N)C(=O)OC1CCC2(C)C(CCC3C2CCC2(C)C(C(C)=O)CCC32)C1 [L-Malate]
[1]
  Solubility at 25° C.: 1400 µg/mL
  Solubility at 37° C.: 2110 µg/mL
[2]
  Hygroscopic weight gain: 4.0%

## O=P(O)(O)O.[2H]C(C)(C)C(N)C(=O)OC1CCC2(C)C(CCC3C2CCC2(C)C(C(C)=O)CCC32)C1.[2H]C(C)(C)C(N)C(=O)OC1CCC2(C)C(CCC3C2CCC2(C)C(C(C)=O)CCC32)C1 (stereo not drawn) [Phosphate]
[2]
  Hygroscopic weight gain: 4.9%

## CC(=O)[C@H]1CC[C@H]2[C@@H]3CC[C@H]4C[C@H](O)CC[C@]4(C)[C@H]3CC[C@]12C [allopregnanolone, 3α-OH-5α-pregnan-20-one]
[8]
  plasma half-life: about 45 minutes

## Maleate
[1]
  Solubility at 25° C.: 730 µg/mL
  Solubility at 37° C.: 1120 µg/mL
[2]
  Hygroscopic weight gain: 0%
